Measurements published in patent US20200353027A1, “A LILAC GINKGO BRICK TEA WITH LIPID LOWERING AND LIVER PROTECTION ACTIVITIES AND A METHOD OF PREPARING THE SAME” (SHAANXI UNIVERSITY OF SCIENCE AND TECHNOLOGY, priority 2019, published 2020).

Test system: mice given ethanol alcohol (alcohol's damage to the liver)
Experiment: Liver protection in mice given ethanol alcohol
Assay type: in vivo, Kunming mice
Settings: Tiopronin 50 mg/kg/day, ethanol 3 g/kg/day, after 25 days, blood
Protocol: To study the liver protection effect of the Lilac Ginkgo Brick Tea of Example 1, the following experiments were conduct.
Male Kunming mice, 50 SPF grades, 5 weeks old, 30-35 g, were randomly divided into Blank Group, Control Group, Tiopronin Positive Control Group, Low Dosage Group, and High Dosage Group. 100 g of Lilac Ginkgo Brick Tea was boiled in 1 L water, filtered, and concentrated to 50 mL concentrated Lilac Ginkgo Brick Tea solution. Blank Group and Control Group were given water and regular food; Tiopronin Group was given 50 mg/kg/day Tiopronin; and Low Dosage Group and High Dosage Group were given 20 mL/kg/day and 50 mL/kg/day concentrated Lilac Ginkgo Brick Tea solution, respectively, and regular food. Control Group, Tiopronin Positive Control Group, Low Dosage Group, and High Dosage Group were given 3 g/kg/day (0.01 mL/g) ethanol alcohol. Blank Group was given equal volume water. After 25 days, the mice were fasted for 2 hours, and blood samples were taken to determine alanine aminotransferase (ALT), aspartate aminotransferase (AST), and triglyceride (TG) levels.

Q: Which results are given for CC(S)C(=O)NCC(=O)O (stereo not drawn) [Tiopronin]?
A: ALT (alanine aminotransferase): 64.80 ± 10.47 U/L; AST (aspartate aminotransferase): 140.39 ± 20.92 U/L; TG (triglyceride): 1.295 ± 0.43 mmol/L
